Results reported in PubChem BioAssay AID1259407 (Chemical Carcinogenesis Research Information System (CCRIS), 2018).
Active and inactive are the calls of the source. How the calls were made is not given here.

Test system: CCRIS mutagenicity, Ames/micronucleus/aberration tests
Assay: CCRIS mutagenicity studies
[1] = Test System: AMES SALMONELLA TYPHIMURIUM, Strain/Indicator: TA98, Metabolic Activation: HAMSTER, LIVER, S-9, AROCLOR 1254, Method: STANDARD PLATE
[2] = Test System: AMES SALMONELLA TYPHIMURIUM, Strain/Indicator: TA98, Metabolic Activation: NONE, Method: STANDARD PLATE
[3] = Test System: AMES SALMONELLA TYPHIMURIUM, Strain/Indicator: TA98, Metabolic Activation: RAT, LIVER, S-9, AROCLOR 1254, Method: STANDARD PLATE
[4] = Test System: AMES SALMONELLA TYPHIMURIUM, Strain/Indicator: TA100, Metabolic Activation: NONE, Method: STANDARD PLATE
[5] = Test System: AMES SALMONELLA TYPHIMURIUM, Strain/Indicator: TA100, Metabolic Activation: RAT, LIVER, S-9, AROCLOR 1254, Method: STANDARD PLATE
[6] = Test System: Ames Salmonella typhimurium, Strain/Indicator: TA100, Metabolic Activation: None, Method: Preincubation
[7] = Test System: Mouse lymphoma, Strain/Indicator: L5178Y (tk+/tk-), Metabolic Activation: None, Method: Suspension/plate
[8] = Test System: Mouse lymphoma, Strain/Indicator: L5178Y (tk+/tk-), Metabolic Activation: Rat, Liver, S-9, Aroclor 1254, Method: Suspension/plate
[9] = Test System: AMES SALMONELLA TYPHIMURIUM, Strain/Indicator: TA98, Metabolic Activation: NONE, Method: PREINCUBATION
[10] = Test System: AMES SALMONELLA TYPHIMURIUM, Strain/Indicator: TA100, Metabolic Activation: NONE, Method: PREINCUBATION

With CN(C)c1ccc2nc3ccc(=[N+](C)C)cc-3sc2c1 the mutagenic call (End Point: In vitro chromosomal aberrations, Test System: Chinese hamster ovary cells, Metabolic Activation: None) was “active; positive”, the mutagenic call (End Point: In vitro chromosomal aberrations, Test System: Chinese hamster ovary cells, Metabolic Activation: Rat, Liver, S-9, Aroclor) was “active; positive” and the mutagenic call (End Point: In vivo micronucleus, Test System: Bone marrow, Species: Mouse, Strain/Sex: B6C3F1/Male, Route: Intraperitoneal) was “inactive; negative”. The mutagenic call (End Point: In vivo micronucleus, Test System: Peripheral blood normochromatic erythrocytes, Species: Mouse, Strain/Sex: B6C3F1/Female, Route: Oral) was “inactive; negative”, the mutagenic call (End Point: In vivo micronucleus, Test System: Peripheral blood normochromatic erythrocytes, Species: Mouse, Strain/Sex: B6C3F1/Male, Route: Intraperitoneal) was “inactive; negative” and the mutagenic call (End Point: In vivo micronucleus, Test System: Peripheral blood normochromatic erythrocytes, Species: Mouse, Strain/Sex: B6C3F1/Male, Route: Oral) was “inactive; negative”. The mutagenic call [1] was “active; positive”, the mutagenic call [2] was “inactive; negative” and the mutagenic call [3] was “active; positive”. For the same compound, the mutagenic call [4] was “active; positive”, the mutagenic call [5] was “active; positive” and the mutagenic call (Test System: Ames Salmonella typhimurium, Strain/Indicator: TA98, Metabolic Activation: Hamster, Liver, S-9, Aroclor 1254 (30%), Method: Standard plate) was “active; positive”. The mutagenic call (Test System: Ames Salmonella typhimurium, Strain/Indicator: TA98, Metabolic Activation: None, Method: Preincubation) was “active; positive”, the mutagenic call (Test System: Ames Salmonella typhimurium, Strain/Indicator: TA98, Metabolic Activation: None, Method: Standard plate) was “active; positive” and the mutagenic call (Test System: Ames Salmonella typhimurium, Strain/Indicator: TA98, Metabolic Activation: Rat, Liver, S-9, Aroclor 1254 (10%), Method: Preincubation) was “active; positive”. The mutagenic call (Test System: Ames Salmonella typhimurium, Strain/Indicator: TA98, Metabolic Activation: Rat, Liver, S-9, Aroclor 1254 (30%), Method: Standard plate) was “active; positive”, the mutagenic call (Test System: Ames Salmonella typhimurium, Strain/Indicator: TA100, Metabolic Activation: Hamster, Liver, S-9, Aroclor 1254 (30%), Method: Standard plate) was “active; positive” and the mutagenic call [6] was “active; positive”. For the same compound, the mutagenic call (Test System: Ames Salmonella typhimurium, Strain/Indicator: TA100, Metabolic Activation: None, Method: Standard plate) was “inactive; negative (ntp describes as equivocal)”, the mutagenic call (Test System: Ames Salmonella typhimurium, Strain/Indicator: TA100, Metabolic Activation: Rat, Liver, S-9, Aroclor 1254 (10%), Method: Preincubation) was “active; positive” and the mutagenic call (Test System: Ames Salmonella typhimurium, Strain/Indicator: TA100, Metabolic Activation: Rat, Liver, S-9, Aroclor 1254 (30%), Method: Standard plate) was “active; positive”. The mutagenic call (Test System: E. coli, Strain/Indicator: WP uvrA/pKM101, Metabolic Activation: None, Method: Preincubation) was “active; positive”, the mutagenic call (Test System: E. coli, Strain/Indicator: WP uvrA/pKM101, Metabolic Activation: Rat, Liver, S-9, Aroclor 1254 (10%), Method: Preincubation) was “active; positive” and the mutagenic call (Test System: MOUSE LYMPHOMA, Strain/Indicator: L5178Y (TK+/TK-), Metabolic Activation: NONE, Method: SUSPENSION/PLATE) was “active; positive”. For the same compound, the mutagenic call (Test System: MOUSE LYMPHOMA, Strain/Indicator: L5178Y (TK+/TK-), Metabolic Activation: RAT, LIVER, S-9, Method: SUSPENSION/PLATE) was “active; positive”, the mutagenic call [7] was “active; positive” and the mutagenic call [8] was “active; positive”.

In the case of O=c1c(=O)c2cccc3ccc4cccc1c4c32, the mutagenic call [9] is reported as “inactive; negative”, the mutagenic call (Test System: AMES SALMONELLA TYPHIMURIUM, Strain/Indicator: TA98, Metabolic Activation: RAT, LIVER, S-9, AROCLOR 1254, Method: PREINCUBATION) is reported as “inactive; negative” and the mutagenic call [10] is reported as “inactive; negative”. The mutagenic call (Test System: AMES SALMONELLA TYPHIMURIUM, Strain/Indicator: TA100, Metabolic Activation: RAT, LIVER, S-9, AROCLOR 1254, Method: PREINCUBATION) was “inactive; negative”.

O=Cc1ccccc1[N+](=O)[O-] was tested, and the mutagenic call [1] was “inactive; negative”, the mutagenic call [9] was “inactive; negative” and the mutagenic call [2] was “inactive; negative”. For the same compound, the mutagenic call [3] was “inactive; negative”, the mutagenic call (Test System: AMES SALMONELLA TYPHIMURIUM, Strain/Indicator: TA98, Metabolic Activation: RAT, LIVER, S-9, KANECHLOR 500, Method: PREINCUBATION) was “inactive; negative” and the mutagenic call (Test System: AMES SALMONELLA TYPHIMURIUM, Strain/Indicator: TA98, Method: PREINCUBATION) was “inactive; negative”. The mutagenic call (Test System: AMES SALMONELLA TYPHIMURIUM, Strain/Indicator: TA100, Metabolic Activation: HAMSTER, LIVER, S-9, AROCLOR 1254, Method: STANDARD PLATE) was “inactive; negative”, the mutagenic call [10] was “inactive; negative” and the mutagenic call [4] was “inactive; negative”. For the same compound, the mutagenic call [5] was “inactive; negative”, the mutagenic call (Test System: AMES SALMONELLA TYPHIMURIUM, Strain/Indicator: TA100, Metabolic Activation: RAT, LIVER, S-9, KANECHLOR 500, Method: PREINCUBATION) was “inactive; negative” and the mutagenic call (Test System: AMES SALMONELLA TYPHIMURIUM, Strain/Indicator: TA100, Method: PREINCUBATION) was “inactive; negative”. For the same compound, the mutagenic call (Test System: AMES SALMONELLA TYPHIMURIUM, Strain/Indicator: TA1535, Metabolic Activation: HAMSTER, LIVER, S-9, AROCLOR 1254, Method: STANDARD PLATE) was “inactive; negative”, the mutagenic call (Test System: AMES SALMONELLA TYPHIMURIUM, Strain/Indicator: TA1535, Metabolic Activation: NONE, Method: PREINCUBATION) was “inactive; negative” and the mutagenic call (Test System: AMES SALMONELLA TYPHIMURIUM, Strain/Indicator: TA1535, Metabolic Activation: NONE, Method: STANDARD PLATE) was “inactive; negative”. For the same compound, the mutagenic call (Test System: AMES SALMONELLA TYPHIMURIUM, Strain/Indicator: TA1535, Metabolic Activation: RAT, LIVER, S-9, AROCLOR 1254, Method: STANDARD PLATE) was “inactive; negative”, the mutagenic call (Test System: AMES SALMONELLA TYPHIMURIUM, Strain/Indicator: TA1535, Method: PREINCUBATION) was “inactive; negative” and the mutagenic call (Test System: AMES SALMONELLA TYPHIMURIUM, Strain/Indicator: TA1537, Metabolic Activation: HAMSTER, LIVER, S-9, AROCLOR 1254, Method: STANDARD PLATE) was “inactive; negative”. For the same compound, the mutagenic call (Test System: AMES SALMONELLA TYPHIMURIUM, Strain/Indicator: TA1537, Metabolic Activation: NONE, Method: PREINCUBATION) was “inactive; negative”, the mutagenic call (Test System: AMES SALMONELLA TYPHIMURIUM, Strain/Indicator: TA1537, Metabolic Activation: NONE, Method: STANDARD PLATE) was “inactive; negative” and the mutagenic call (Test System: AMES SALMONELLA TYPHIMURIUM, Strain/Indicator: TA1537, Metabolic Activation: RAT, LIVER, S-9, AROCLOR 1254, Method: STANDARD PLATE) was “inactive; negative”. For the same compound, the mutagenic call (Test System: AMES SALMONELLA TYPHIMURIUM, Strain/Indicator: TA1537, Method: PREINCUBATION) was “inactive; negative”, the mutagenic call (Test System: AMES SALMONELLA TYPHIMURIUM, Strain/Indicator: TA1538, Metabolic Activation: HAMSTER, LIVER, S-9, AROCLOR 1254, Method: STANDARD PLATE) was “inactive; negative” and the mutagenic call (Test System: AMES SALMONELLA TYPHIMURIUM, Strain/Indicator: TA1538, Metabolic Activation: NONE, Method: PREINCUBATION) was “inactive; negative”. The mutagenic call (Test System: AMES SALMONELLA TYPHIMURIUM, Strain/Indicator: TA1538, Metabolic Activation: NONE, Method: STANDARD PLATE) was “inactive; negative”, the mutagenic call (Test System: AMES SALMONELLA TYPHIMURIUM, Strain/Indicator: TA1538, Metabolic Activation: RAT, LIVER, S-9, AROCLOR 1254, Method: STANDARD PLATE) was “inactive; negative” and the mutagenic call (Test System: AMES SALMONELLA TYPHIMURIUM, Strain/Indicator: TA1538, Method: PREINCUBATION) was “inactive; negative”. For the same compound, the mutagenic call [7] was “inactive; negative” and the mutagenic call [8] was “inactive; negative”.

For CC(C)C#N, the mutagenic call (End Point: In vitro chromosomal aberrations, Test System: Chinese hamster lung (CHL/IU) cells, Metabolic Activation: Rat, Liver, S9, Phenobarbital and 5,6-benzoflavone) was “inactive; negative”, the mutagenic call [6] was “active; positive” and the mutagenic call (Test System: Ames Salmonella typhimurium, Strain/Indicator: TA100, Metabolic Activation: Rat, Liver, S9, Sodium phenobarbital and 5,6-benzoflavone (10%), Method: Preincubation) was “active; positive”. The mutagenic call (Test System: Ames Salmonella typhimurium, Strain/Indicator: TA1535, Metabolic Activation: None, Method: Preincubation) was “inactive; negative”, the mutagenic call (Test System: Ames Salmonella typhimurium, Strain/Indicator: TA1537, Metabolic Activation: None, Method: Preincubation) was “active; positive” and the mutagenic call (Test System: E. coli, Strain/Indicator: WP2uvrA/pKM101, Metabolic Activation: None, Method: Preincubation) was “active; positive”. The mutagenic call (Test System: E. coli, Strain/Indicator: WP2uvrA/pKM101, Metabolic Activation: Rat, Liver, S9, Sodium phenobarbital and 5,6-benzoflavone (10%), Method: Preincubation) was “active; positive”.

In the case of O=C1CCC(=O)N1c1ccc(Cl)c(Cl)c1, the mutagenic call [2] is reported as “inactive; negative”, the mutagenic call [3] is reported as “inactive; negative” and the mutagenic call [4] is reported as “inactive; negative”. The mutagenic call [5] was “inactive; negative”.
